From patent US7268139B2, “Methods of promoting osteogenesis” (Scios, Inc., priority 2002, dated 2007)

Key:
[1] = test system: closed femur fractures in female retired breeder Sprague-Dawley rats; assay: Closed femur fracture healing in rats, radiographic analysis; format: in vivo, rat; conditions: for Radiographic score, Mean: Group C rats, score 0 to 4
Description: Closed femur fractures were made in female retired breeder Sprague-Dawley rats. The rats were given oral doses of the p38 MAP kinase inhibitor (compound 25, Table B)(30 mg/kg) once or twice per day and either vehicle only (control) or rofecoxib (Vioxx, 3 mg/kg, once a day) as a positive control for fracture inhibition.
(§1) Retired breeder female Sprague-Dawley rats were purchased from Taconic Farms. The rats were housed in pairs and given food and water ad libitum. A total of 124 rats were purchased for these experiments (Table 4). However, only 65 rats were used for the final set of experiments as described in Table 4. Drugs were first administered to the rats by gavage using PEG300 (Sigma) as a carrier (0.5 ml per kg). Rats were initially gavaged with drugs 6 hours after surgery (between 4 and 6 PM on day 1) and then twice/day afterwards for 5 days (between 6-8 AM and again between 5-7 PM). The p38 MAP kinase inhibitor used in the experiments is compound 25, Table B. Rofecoxib was obtained by pulverizing Vioxx pills (Merck).
(§2) Rats were anesthetized with a ketamine-xylazine mixture. The right hindlimb was shaved, and cleansed with betadine. A medial parapatellar incision was made through the skin and underlying muscle to the distal end of the femur. The patella was dislocated laterally to expose the femoral condyles. A 20 g needle was used to drill a hole into the distal end of the femur, between the condyles, and then used to ream the femoral canal. A 0.81 mm diameter stainless steel wire was then inserted into the femoral condyle and tamped into the proximal end of the femur. The rod was then trimmed as close as possible to the femoral condyles with wire cutters. The incision was closed in two layers with resorbable Vicryl sutures. A mid-shaft transverse fracture was made in the right femur using a three-point bending device as described previously (Bonnarens, F. and Einhorn, T. A., J. Orthop. Res. 2:97-101 (1984)).
Radiographs were made using an HP Faxitron and Kodak MINR2000 mammography film. Radiographs were photographed with and Olympus C-3040 digital camera for figure preparation. The 4 week post-fracture radiographs from all the rats that had survived to 4 weeks in Group C (rats 60-124) and which were not comminuted, infected, or destabilized were scored as follows. One point was assigned to each radiograph in which a cortex of the fracture callus appeared bridged and/or where the cortical bone fracture site appeared to be bridged by new bone. Thus a radiograph could have a minimal score of 0 or a maximal score of 4.

[2] = test system: closed femur fractures in female retired breeder Sprague-Dawley rats; assay: Closed femur fracture healing in rats, torsional mechanical testing; format: in vivo, rat
Description: Torsional mechanical testing was performed on the fractured (right) and contralateral (left) femurs from control, rofecoxib (3 mg/kg/day); p38 MAP kinase inhibitor (30 mg/kg/day), and p38 MAP kinase inhibitor (2×30 mg/kg/day). The stabilizing rods were removed from the femurs prior to testing and the femurs were wrapped in saline soaked gauze to prevent dehydration prior to testing. The ends of the femurs were potted in hex nuts with Wood's metal and the peak torque and angle failure determined using an MTS servohydraulic mechanical testing machine and a 20 Nm reaction torque load cell as per standard procedures (Simon, A. M. et al., J. Bone Miner. Res. 17:963-976 (2002)). Femur and fracture callus dimensions and gage length were measured before and after mechanical testing using digital calipers. The values obtained were used to calculate torsional rigidity, and shear stress as described (Simon, A. M. et al., J. Bone Min. Res., in press (2002)). Finally, the data was normalized as the percentage of the fractured femur relative to the contralateral femur for each animal. This helped to reduce animal-to-animal variability.
as §1, §2
Rats with oblique, comminuted, or infected fractures were not used for mechanical testing (see Appendix A). Both femora were removed and cleaned of all soft tissue leaving the fracture callus undisturbed and then immediately processed for mechanical testing. The samples were wrapped in saline soaked gauze to prevent dehydration between steps. Measurements of the femora were taken using digital calipers to determine femur length and external callus dimensions. The intramedullary pin was removed from the fractured femur. The femoral ends were potted in 1-inch hexnuts using a low melt temperature metal (Wood's metal, Alfa Aesar, Ward Mill, Mass.). Once potted, the gage length (L) of each femur was measured. Torsional testing was conducted using a servohydraulic testing machine (MTS, Eden, Praire, Minn.) with a 20 Nm reaction torque cell (Interface, Scottsdale, Ariz.). The testing was carried out to failure at a rate of 2°/sec and a data recording rate of 20 Hz. Both the fractured and intact femora were tested in internal rotation in proper anatomic orientation. The peak torque and angle at failure were calculated from the load-deformation curves. Internal fracture callus dimensions were measured after mechanical testing. […]

[3] = test system: closed femur fractures in female retired breeder Sprague-Dawley rats; assay: Closed femur fracture healing in rats, histology; format: in vivo, rat; conditions: for Fracture callus histology: two weeks post-fracture
Description: as §1, with “Rats were initially gavaged with drugs 6 hours after surgery (between 4 and 6 PM on day 1) and then twice/day afterwards for 5 days (between 6-8 AM and again between 5-7 PM).” left out
as §2
Femurs were dissected from rats at 2, 4, 6, and 8 weeks as detailed in Appendix A. Soft tissue was dissected from the femurs and the femurs were fixed overnight in buffered formalin. The femurs were then embedded in polymethylmethacrylate (PMMA) following standard procedures. Longitudinal sections (˜200 um thick) were cut from the PMMA blocks and ground and polished to a thickness of approximately 50-100 um. The sections were then stained with Van Gieson's picrofuschin and Stevenel's Blue. […] Sections were photographed with an Olympus BH2 microscope.

fracture healing in rats = assay: Prior experiments: fracture healing in rats treated with a COX-2 inhibitor; format: in vivo, rat
Description: The prior set of experiments examining the effects of COX-2-selective NSAIDs on fracture healing used retired breeder male Sprague-Dawley rats with an average size of approximately 600 g. To stabilize the femur fractures in these animals, a stainless steel rod with a diameter of 1.1 mm was used. This same diameter rod was continually used during the initial phases of this study even though 250-300 g retired breeder female Sprague-Dawley rats were used.

[4] = test system: mouse model of RA (collagen type II arthritis); assay: Murine collagen type II arthritis, early and advanced disease; format: in vivo
Description: A p38α MAP kinase inhibitor (compound 162, Table B) was evaluated to determine whether a p38 inhibitor could modulate cartilage and bone destruction in a mouse model of RA. Induction of RA was achieved using bovine type II cartilage (100 ug/kg, subcutaneous on days 0 and 21) and bacterial lipopolysaccharide (50 ug/mouse, intraperitoneal on day 22).
Oral treatment was vehicle alone (1% PEG 400, bid) or the p38 inhibitor (90 mg/kg bid). The duration of treatment was 10 and 20 days in mice with early onset or advanced disease, respectively. Treatment was initiated in mice with early onset or advanced disease. Disease state was determined by clinical scoring performed in a blinded protocol that assigned a maximum per paw value of 3 based upon degree of erythema and swelling observed. Early or advanced disease was judged by clinical scoring, 1.6+0.6 (mean+/−std dev) on day 24 and 9.1±2.6 on day 30, respectively.

[5] = Group C, 4 weeks post-fracture, rofecoxib 3 mg/kg/day
[6] = Groups A and B, 8 weeks post-fx, rofecoxib 3 mg/kg/day
[7] = Group C, 4 weeks post-fracture, 30 mg/kg/day
[8] = Group C, 4 weeks post-fracture, 2×30 mg/kg/day
[9] = Groups A and B (rats 1-57), twice-a-day treated rats
[10] = Groups A and B, 4 weeks post-fx, 30 mg/kg/day
[11] = Groups A and B, 6 weeks post-fx, 30 mg/kg/day
[12] = Groups A and B, 6 weeks post-fx, 2×30 mg/kg/day
[13] = Groups A and B, 8 weeks post-fx, 2×30 mg/kg/day
[14] = advanced disease, 90 mg/kg bid oral, 20 days

## CS(=O)(=O)c1ccc(C2=C(c3ccccc3)C(=O)OC2)cc1 [Rofecoxib, rofecoxib, reference compound]
[1]; 4 weeks post-fracture, rofecoxib 3 mg/kg oral once a day for 5 days
  Radiographic score, Mean: 0.83
[1]; 4 weeks post-fracture, rofecoxib 3 mg/kg once a day
  Bridging of the fracture in radiographs: little or no bridging was evident
[2]; [5]
  NSS = normalized shear stress: 13 ± 9
  NTR = normalized torsional rigidity: 19 ± 9
[2]; Group C, 4 weeks post-fracture, rofecoxib 3 mg/kg/day, percentage of fractured femur relative to contralateral femur
  NPT = normalized peak torque: 32 ± 3
[2]; [6]
  NPT = normalized peak torque: 57 ± 42
  NSS = normalized shear stress: 16 ± 8
  NTR = normalized torsional rigidity: 100 ± 82
[3]; rofecoxib, 5 days of treatment
  Fibrous non-unions: development of fibrous non-unions in some of the rofecoxib treated rats
[3]; rofecoxib 3 mg/kg once a day
  Fracture callus histology: less woven bone formation was observed
Fracture healing in rats
  Fracture healing: dramatically impaired

## COc1cc2c(cc1C(=O)N1CCC(Cc3ccc(F)cc3)CC1)c(C(=O)C(=O)N(C)C)cn2C [compound 25]
[1]; 4 week post-fracture radiographs, 30 mg/kg once or twice per day
  Radiographic scores compared with control and rofecoxib: significantly higher scores than the control or rofecoxib treated rats
[1]; 4 weeks post-fracture, 30 mg/kg oral once per day for 5 days
  Radiographic score, Mean: 3.2
[1]; 4 weeks post-fracture, 30 mg/kg oral twice per day for 5 days
  Radiographic score, Mean: 3.75
[1]; oral 30 mg/kg once or twice per day
  Effect on fracture healing (overall): does not negatively affect fracture healing and can actually enhance or accelerate the healing process
[2]; Group C, 4 weeks post-fracture
  Normalized peak torque compared with rofecoxib and control: significantly increased normalized peak torque relative to rofecoxib treated rats but not relative to the control animals
[2]; [7]
  NSS = normalized shear stress: 15 ± 8
  NTR = normalized torsional rigidity: 28 ± 24
[2]; Group C, 4 weeks post-fracture, 30 mg/kg/day, percentage of fractured relative to contralateral femur
  NPT = normalized peak torque: 50 ± 11
[2]; [8]
  NSS = normalized shear stress: 10 ± 4
  NTR = normalized torsional rigidity: 61 ± 55
[2]; Group C, 4 weeks post-fracture, 2×30 mg/kg/day, percentage of fractured relative to contralateral femur
  NPT = normalized peak torque: 48 ± 14
[2]; [9]
  normalized peak torque: ~150%
  normalized torsional rigidity: ~150%
[2]; [10]
  NPT = normalized peak torque: 57
  NSS = normalized shear stress: 14.1
  NTR = normalized torsional rigidity: 69
[2]; [11]
  NPT = normalized peak torque: 85 ± 17
  NSS = normalized shear stress: 36 ± 11
  NTR = normalized torsional rigidity: 109 ± 52
[2]; [12]
  NPT = normalized peak torque: 97
  NSS = normalized shear stress: 63
  NTR = normalized torsional rigidity: 126
[2]; [13]
  NPT = normalized peak torque: 158 ± 46
  NSS = normalized shear stress: 45 ± 1
  NTR = normalized torsional rigidity: 156 ± 68
[3]; 30 mg/kg once or twice per day
  Histological analysis of fracture healing (summary): enhanced fracture healing by increasing and/or accelerating calcified cartilage formation as well as new bone formation
[3]; not quantified
  Amount of osteoclasts within the fracture callus: appeared to approximate levels found in control rats
[3]; 30 mg/kg once per day
  Fracture callus histology: a near normal amount of woven bone but more than normal amounts of chondrocytes
[3]; 30 mg/kg twice per day
  Fracture callus histology: advanced healing with the fracture gap almost filled with newly formed woven bone
[4]; [14]
  cartilage and bone healing by histological assessment: evidence of cartilage and bone healing
  serum cartilage oligomeric matrix protein (COMP): reduced serum cartilage oligomeric matrix protein
[4]; advanced disease, compared to baseline and vehicle treated groups
  osteoclast number: reduced osteoclast number
[4]; treatment initiated in advanced disease, 90 mg/kg bid oral, 20 days, vehicle 9.1±2.2
  clinical scoring: 4.9±1.7

## C[C@@H]1CN(Cc2ccc(F)cc2)[C@@H](C)CN1C(=O)c1cc2c(C(=O)C(=O)N(C)C)c[nH]c2cc1Cl [compound 162]
[4]; treatment initiated at onset of disease, 90 mg/kg bid oral, 10 days
  Histological analysis of joint lesion morphology: dramatic reduction in all aspects of joint lesion morphology including reduced cartilage and bone erosions
[4]; treatment initiated at onset of disease, 90 mg/kg bid oral, 10 days, mean ± std dev, vehicle 7.0±3.4
  clinical scoring: 2.4±1.5
